Test results: patent publication US4123534A, “Adenine derivatives and hypolipidemic composition thereof” (Wulfing; Johann W., priority 1976, dated 1978)
Where two headings read alike, the source gives them in different places.

Legend:
[1] = fall in serum triglyceride levels in male rats, 1 mg/kg per os; type: in vivo; conditions: 3-methylpyrazole-5-carboxylic acid addition salts
Description: When administered to male rats the 3-methylpyrazole-5-carboxylic acid addition salts of the compound of the formula (IV) wherein R2 is respectively a methyl, ethyl, isopropyl and n-butyl at a dose of 1 mg/kg per os produced a fall in serum triglyceride levels of about 23%, 34%, 34% and 56% respectively.

[2] = acute toxicity (LD50) in mice; type: in vivo; conditions: for LD50: mouse, in vivo, mice
[3] = oral test in normal rats starved for 17 hours: serum lipid lowering; type: in vivo; conditions: rats starved 17 hours
Description: Similarly, a reduction in serum free fatty acid concentration of about 40-50% was produced over the dose range 0.15 mg/kg to 5 mg/kg.

[4] = different animal species and man; cited from earlier work

CC(C)N(CCO)CC(O)Cn1cnc2c(N)ncnc21 (centres unmarked)
fall in serum triglyceride levels [1]: ~34%

CCCCN(CCO)CC(O)Cn1cnc2c(N)ncnc21 (centres unmarked)
fall in serum triglyceride levels [1]: ~56%

CCN(CCO)CC(O)Cn1cnc2c(N)ncnc21 (centres unmarked)
fall in serum triglyceride levels [1]: ~34%

CN(CCO)CC(O)Cn1cnc2c(N)ncnc21 (stereo not drawn) [Example 1 (9-isomer), 6-Amino-9-[2-hydroxy-3-(N-methyl-N-2-hydroxyethyl)aminopropyl]purine]
acute toxicity ([2]; in words): low acute toxicity | LD50 ([2]; iv, intra-venous, read-out: LD50 by intra-venous administration): ~350 mg/kg | LD50 ([2]; oral, read-out: LD50 by oral administration): ~1000 mg/kg

CN(CCO)CC(O)Cn1cnc2c(N)ncnc21 (centres unmarked) [Example 2, 6-Amino-9-[2-hydroxy-3-(N-methyl-N-2-hydroxyethyl)aminopropyl]purine3-methylpyrazole-5-carboxylate]
fall in serum triglyceride levels [1]: about 23% | reduction in serum triglyceride levels ([3]; 1 hour post administration, dose range 0.25 mg/kg to 25 mg/kg): 30-40% | reduction in serum cholesterol levels ([3]; dose of 100 mg/kg): about 30% | reduction in serum free fatty acid concentration ([3]; dose range 0.15 mg/kg to 5 mg/kg): 40-50%

Nc1ncnc2c1ncn2C[C@@H](O)[C@@H](O)C(=O)O [lentinacin]
lowering of lipid components of plasma lipoproteins (cholesterol, triglycerides and phospholipids) [4]: lowers all lipid components of the plasma - lipoproteins
